Where two headings read alike, the source gives them in different places.
Experiments:
[1] = test system: HIV-1 Y181C mutant strain; format: cell-based
[2] = test system: HIV-1 E138K mutant strain; experiment: microbe, parasite or virus in culture; format: cell-based
HIV-1 RT = HIV-1 RT (Human immunodeficiency virus type 1 group M subtype B, UniProt P03366); conditions: read-out: IC50 against HIV-1 RT; cited from earlier work
WT HIV-1 strain (IIIB) [3] = format: cell-based; conditions: ratio of CC50/EC50, MT-4 cells
[4] = test system: K103 N + Y181C double mutant HIV-1 strain (RES056); experiment: Anti-HIV-1 activity against double mutant RES056 in MT-4 cells, MTT method; format: cell-based; conditions: for EC50 RES056: MT-4 cells, MTT method; for SI RES056: ratio of CC50/EC50, MT-4 cells, values given with symbol X1
wild-type HIV-1 (NL4-3) = experiment: Inhibition of wild-type HIV-1; format: cell-based; conditions: ratio of CC50/EC50, TZM-bl cells
[5] = test system: HIV-1 Y188L mutant strain; experiment: microbe, parasite or virus in culture; format: cell-based; conditions: for EC50: Human immunodeficiency virus 1, MT4, read-out: EC50 Y188L
[6] = test system: HIV-1 L100I mutant strain; experiment: microbe, parasite or virus in culture; format: cell-based
[7] = test system: HIV-1 K103 N mutant strain; format: cell-based; conditions: ratio of CC50/EC50, MT-4 cells
[8] = test system: HIV-1 F227L + V106A mutant strain; experiment: microbe, parasite or virus in culture; format: cell-based
[9] = Cytotoxicity in mock-infected MT-4 cells, MTT method; format: cell-based; conditions: human
MT-4 cells = conditions: cited from earlier work
[10] = test system: K103 N + Y181C double mutant HIV-1 strain (RES056); conditions: cited from earlier work
WT HIV-1 strain (IIIB) [11] = conditions: cited from earlier work

Cc1cn([C@H]2C[C@H](N=[N+]=[N-])[C@@H](CO)O2)c(=O)[nH]c1=O [AZT, Zidovudine]
Resistance Folds Y181C ([1]; ratio of EC50 against mutant strain/EC50 against WT strain): 1.0
EC50 ([2]; Human immunodeficiency virus 1, MT4, read-out: EC50 E138K): 13 ± 4 nM

CCOc1ccnc(CCNC(=S)Nc2ccc(Cl)cn2)c1F [PETT-2]
IC50 (HIV-1 RT): 5 nM

Cc1cc(C)c(Oc2cc(Nc3ccc(C#N)cc3)ncc2C(=O)NCc2cn(Cc3ccc(Cl)cc3)nn2)c(C)c1 [3a13, N-((1-(4-chlorobenzyl)-1H-1,2,3-triazol-4-yl)methyl)-6-((4-cyanophenyl)amino)-4-(mesityloxy)nicotinamide]
SI IIIB (WT HIV-1 strain (IIIB) [3]): ≥620

Cc1cc(C)c(Oc2cc(Nc3ccc(C#N)cc3)ncc2C(=O)NCc2cn(CC(=O)N3CCOCC3)nn2)c(C)c1 [3b9, 6-((4-cyanophenyl)amino)-4-(mesityloxy)-N-((1-(2-morpholino-2-oxoethyl)-1H-1,2,3-triazol-4-yl)methyl)nicotinamide]
SI IIIB (WT HIV-1 strain (IIIB) [3]): 9279
EC50 RES056 [4]: low micromolar concentration
SI (wild-type HIV-1 (NL4-3)): >10.8

Cc1cc(C)c(Oc2cc(Nc3ccc(C#N)cc3)ncc2C(=O)NCc2cn(Cc3ccccc3C)nn2)c(C)c1 [3a1, N-((1-(2-methylbenzyl)-1H-1,2,3-triazol-4-yl)methyl)-6-((4-cyanophenyl)amino)-4(mesityloxy)nicotinamide]
SI IIIB (WT HIV-1 strain (IIIB) [3]): ≥2132

Cc1cc(C)c(Oc2cc(Nc3ccc(C#N)cc3)ncc2C(=O)NCc2cn(Cc3ccc(F)cc3)nn2)c(C)c1 [3a12, N-((1-(4-fluorobenzyl)-1H-1,2,3-triazol-4-yl)methyl)-6-((4-cyanophenyl)amino)-4-(mesityloxy)nicotinamide]
SI IIIB (WT HIV-1 strain (IIIB) [3]): ≥2056

Cc1ccnc2c1NC(=O)c1cccnc1N2C1CC1 [NVP, Nevirapine]
EC50 [5]: 9610 ± 1860 nM
EC50 ([6]; Human immunodeficiency virus 1, MT4, read-out: EC50 L100I): 830 ± 320 nM

Cc1cc(C)c(Oc2cc(Nc3ccc(C#N)cc3)ncc2C(=O)NCc2cn(CCCO)nn2)c(C)c1 [3b1, 6-((4-cyanophenyl)amino)-N-((1-(3-hydroxypropyl)-1H-1,2,3-triazol-4-yl)methyl)-4-(mesityloxy)nicotinamide]
EC50 RES056 [4]: low micromolar concentration

Cc1cc(C)c(Oc2cc(Nc3ccc(C#N)cc3)ncc2C(=O)NCc2cn(Cc3ccccc3Cl)nn2)c(C)c1 [3a3, N-((1-(2-chlorobenzyl)-1H-1,2,3-triazol-4-yl)methyl)-6-((4-cyanophenyl)amino)-4-(mesityloxy)nicotinamide]
SI IIIB (WT HIV-1 strain (IIIB) [3]): ≥1807

Cc1cc(C)c(Oc2cc(Nc3ccc(C#N)cc3)ncc2C(=O)NCc2cn(CC(=O)N3CCCC3)nn2)c(C)c1 [3b8, 6-((4-cyanophenyl)amino)-4-(mesityloxy)-N-((1-(2-oxo-2-(pyrrolidin-1-yl)ethyl)-1H-1,2,3-triazol-4-yl)methyl)nicotinamide]
EC50 RES056 [4]: low micromolar concentration

CC(=O)Cn1cc(CNC(=O)c2cnc(Nc3ccc(C#N)cc3)cc2Oc2c(C)cc(C)cc2C)nn1 [3b3, 6-((4-cyanophenyl)amino)-4-(mesityloxy)-N-((1-(2-oxopropyl)-1H-1,2,3-triazol-4-yl)methyl)nicotinamide]
EC50 RES056 [4]: low micromolar concentration

Cc1cc(C)c(Oc2cc(Nc3ccc(C#N)cc3)ncc2C(=O)NCc2cn(CC(N)=O)nn2)c(C)c1 [3b7, N-((1-(2-amino-2-oxoethyl)-1H-1,2,3-triazol-4-yl)methyl)-6-((4-cyanophenyl)amino)-4-(mesityloxy)nicotinamide]
EC50 RES056 [4]: low micromolar concentration

Cc1cc(C)c(Oc2cc(Nc3ccc(C#N)cc3)ncc2C(=O)NCc2cn(Cc3ccccc3[N+](=O)[O-])nn2)c(C)c1 [3a5, N-((1-(2-nitrobenzyl)-1H-1,2,3-triazol-4-yl)methyl)-6-((4-cyanophenyl)amino)-4-(mesityloxy)nicotinamide]
SI IIIB (WT HIV-1 strain (IIIB) [3]): >3724
SI RES056 [4]: X1

CC(C)Nc1cccnc1N1CCN(C(=O)c2cc3cc(NS(C)(=O)=O)ccc3[nH]2)CC1 [DLV, Delavirdine]
SI Y188L ([5]; ratio of CC50/EC50, MT-4 cells): 44
SI K103 N [7]: 12
SI L100I ([6]; ratio of CC50/EC50, MT-4 cells): 14
SI F227L + V106A ([8]; ratio of CC50/EC50, MT-4 cells): 16
SI Y181C ([1]; ratio of CC50/EC50, MT-4 cells): 15
SI E138K ([2]; ratio of CC50/EC50, MT-4 cells): 715
CC50 at 5 days [9]: 36800 nM

Cc1cc(C)c(Oc2cc(Nc3ccc(C#N)cc3)ncc2C(=O)NCc2cn(Cc3ccccc3C#N)nn2)c(C)c1 [3a4, N-((1-(2-cyanobenzyl)-1H-1,2,3-triazol-4-yl)methyl)-6-((4-cyanophenyl)amino)-4-(mesityloxy)nicotinamide]
SI IIIB (WT HIV-1 strain (IIIB) [3]): >5589
SI RES056 [4]: X1

Cc1cc(C)c(Oc2cc(Nc3ccc(C#N)cc3)ncc2C(=O)NCc2cn(Cc3cccc([N+](=O)[O-])c3)nn2)c(C)c1 [3a10, N-((1-(3-nitrobenzyl)-1H-1,2,3-triazol-4-yl)methyl)-6-((4-cyanophenyl)amino)-4-(mesityloxy)nicotinamide]
SI IIIB (WT HIV-1 strain (IIIB) [3]): ≥4220

Cc1cc(C#N)cc(C)c1Oc1nc(Nc2ccc(C#N)cc2)nc(N)c1Br [ETR, Etravirine]
CC50 at 5 days [9]: 2460 nM

Cc1cc(C)c(Oc2cc(Nc3ccc(C#N)cc3)ncc2C(=O)NCc2cn(Cc3cccc(F)c3)nn2)c(C)c1 [3a7, N-((1-(3-fluorobenzyl)-1H-1,2,3-triazol-4-yl)methyl)-6-((4-cyanophenyl)amino)-4-(mesityloxy)nicotinamide]
SI IIIB (WT HIV-1 strain (IIIB) [3]): ≥2608

C#CCNC(=O)c1cnc(Nc2ccc(C#N)cc2)cc1Oc1c(C)cc(C)cc1C [L-6b5, 6-((4-cyanophenyl)amino)-4-(mesityloxy)-N-(prop-2-yn-1-yl)nicotinamide]
CC50 (MT-4 cells): 73000 ± 26900 nM
SI RES056 ([10]; ratio of CC50/EC50): 12
EC50 ([10]; read-out: EC50 RES056, MT-4 cells): 6100 ± 540 nM
SI IIIB (WT HIV-1 strain (IIIB) [11]; ratio of CC50/EC50): 2471
EC50 (WT HIV-1 strain (IIIB) [11]; read-out: EC50 IIIB, MT-4 cells): 29 ± 5 nM

O=C1Nc2ccc(Cl)cc2[C@@](C#CC2CC2)(C(F)(F)F)O1 [EFV, Efavirenz]
EC50 [5]: 340 ± 10 nM
EC50 ([8]; Human immunodeficiency virus 1, MT4, read-out: EC50 F227L + V106A): 210 ± 8 nM

Cc1cc(C)c(Oc2cc(Nc3ccc(C#N)cc3)ncc2C(=O)NCc2cn(CCC#N)nn2)c(C)c1 [3b2, N-((1-(2-cyanoethyl)-1H-1,2,3-triazol-4-yl)methyl)-6-((4-cyanophenyl)amino)-4-(mesityloxy)nicotinamide]
SI IIIB (WT HIV-1 strain (IIIB) [3]): 2044
EC50 RES056 [4]: low micromolar concentration

Cc1cc(C)c(Oc2cc(Nc3ccc(C#N)cc3)ncc2C(=O)NCc2cn(Cc3cccc(C#N)c3)nn2)c(C)c1 [3a9, N-((1-(3-cyanobenzyl)-1H-1,2,3-triazol-4-yl)methyl)-6-((4-cyanophenyl)amino)-4-(mesityloxy)nicotinamide]
SI IIIB (WT HIV-1 strain (IIIB) [3]): ≥5213

Cc1cc(C)c(Oc2cc(Nc3ccc(C#N)cc3)ncc2C(=O)NCc2cn(Cc3ccc([N+](=O)[O-])cc3)nn2)c(C)c1 [3a14, N-((1-(4-nitrobenzyl)-1H-1,2,3-triazol-4-yl)methyl)-6-((4-cyanophenyl)amino)-4-(mesityloxy)nicotinamide]
SI IIIB (WT HIV-1 strain (IIIB) [3]): ≥3498

Cc1cc(C)c(Oc2cc(Nc3ccc(C#N)cc3)ncc2C(=O)NCc2cn(Cc3ccccc3F)nn2)c(C)c1 [3a2, N-((1-(2-fluorobenzyl)-1H-1,2,3-triazol-4-yl)methyl)-6-((4-cyanophenyl)amino)-4-(mesityloxy)nicotinamide]
SI IIIB (WT HIV-1 strain (IIIB) [3]): >2348
SI RES056 [4]: X1
